Molecular target: PI3K-alpha (Homo sapiens (Human), UniProt P42336)
Experiment: HTRF PI3K biochemical assay, alpha isoform
Conditions: ratio PI3K-alpha IC50 value/PI3K-delta IC50 value

PI3K-alpha, sequence (P42336 whole entry, looked up, canonical isoform): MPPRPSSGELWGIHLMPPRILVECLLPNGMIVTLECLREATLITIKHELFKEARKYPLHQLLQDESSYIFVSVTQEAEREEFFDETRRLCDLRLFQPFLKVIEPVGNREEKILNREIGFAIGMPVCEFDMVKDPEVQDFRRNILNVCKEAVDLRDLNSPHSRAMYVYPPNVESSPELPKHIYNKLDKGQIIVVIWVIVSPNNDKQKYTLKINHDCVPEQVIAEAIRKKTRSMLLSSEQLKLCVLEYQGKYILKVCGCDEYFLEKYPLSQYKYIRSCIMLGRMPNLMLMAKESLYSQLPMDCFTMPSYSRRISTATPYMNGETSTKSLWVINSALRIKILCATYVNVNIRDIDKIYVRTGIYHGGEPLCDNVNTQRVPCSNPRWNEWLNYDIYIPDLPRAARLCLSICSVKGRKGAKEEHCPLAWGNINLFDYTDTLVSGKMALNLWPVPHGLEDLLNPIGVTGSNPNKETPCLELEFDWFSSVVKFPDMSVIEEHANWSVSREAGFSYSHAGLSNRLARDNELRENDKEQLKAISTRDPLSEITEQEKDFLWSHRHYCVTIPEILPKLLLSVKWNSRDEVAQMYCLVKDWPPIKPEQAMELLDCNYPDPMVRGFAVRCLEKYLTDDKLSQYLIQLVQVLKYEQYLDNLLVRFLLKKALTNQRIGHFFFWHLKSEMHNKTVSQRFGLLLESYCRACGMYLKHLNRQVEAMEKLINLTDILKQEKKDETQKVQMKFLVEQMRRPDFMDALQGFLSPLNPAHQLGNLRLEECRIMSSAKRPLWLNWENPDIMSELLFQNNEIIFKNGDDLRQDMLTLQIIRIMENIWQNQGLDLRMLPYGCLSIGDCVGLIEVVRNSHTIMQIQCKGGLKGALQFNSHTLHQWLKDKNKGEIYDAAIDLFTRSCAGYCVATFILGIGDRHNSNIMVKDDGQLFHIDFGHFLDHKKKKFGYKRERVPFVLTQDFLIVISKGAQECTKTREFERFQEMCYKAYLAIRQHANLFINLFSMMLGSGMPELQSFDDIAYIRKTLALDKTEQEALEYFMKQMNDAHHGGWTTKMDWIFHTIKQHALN
PI3K-alpha, sequence (P27986 whole entry partner, looked up, canonical isoform): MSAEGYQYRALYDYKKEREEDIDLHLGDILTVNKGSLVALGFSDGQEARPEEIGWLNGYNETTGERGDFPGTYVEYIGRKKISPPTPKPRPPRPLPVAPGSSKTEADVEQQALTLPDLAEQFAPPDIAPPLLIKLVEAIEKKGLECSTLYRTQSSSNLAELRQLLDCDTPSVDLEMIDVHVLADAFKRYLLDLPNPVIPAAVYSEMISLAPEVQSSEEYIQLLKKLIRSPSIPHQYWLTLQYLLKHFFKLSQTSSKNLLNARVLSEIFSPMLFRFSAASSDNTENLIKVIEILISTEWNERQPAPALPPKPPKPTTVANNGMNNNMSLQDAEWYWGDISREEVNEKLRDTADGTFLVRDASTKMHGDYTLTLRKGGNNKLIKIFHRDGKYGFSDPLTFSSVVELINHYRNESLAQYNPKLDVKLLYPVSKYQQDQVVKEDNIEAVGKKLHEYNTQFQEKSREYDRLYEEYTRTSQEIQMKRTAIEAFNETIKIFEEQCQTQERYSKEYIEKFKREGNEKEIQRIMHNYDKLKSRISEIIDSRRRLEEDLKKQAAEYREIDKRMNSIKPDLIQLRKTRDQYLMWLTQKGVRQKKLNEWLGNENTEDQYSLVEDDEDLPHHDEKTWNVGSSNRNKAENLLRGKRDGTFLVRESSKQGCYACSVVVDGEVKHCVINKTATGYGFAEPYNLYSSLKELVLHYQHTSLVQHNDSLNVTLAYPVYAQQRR

| Structure (SMILES) | Relative Selectivity versus PI3Kalpha |
| --- | --- |
| CCn1ncc(-c2nc3c(O[C@H]4CCN(C(=O)OCC(C)(C)C)C4)ncnc3n2C)c1C [Compound 1-9, 2,2-dimethylpropyl (3S)-3-{[8-(1-ethyl-5-methyl-1H-pyrazol-4-yl)-9-methyl-9H-purin-6-yl]oxy}pyrrolidine-1-carboxylate] | >10 |
| CCn1ncc(-c2nc3c(O[C@H]4CCN(C(=O)c5cnn(C(C)C)c5)C4)ncnc3n2C)c1C [Compound 2-31, 8-(1-ethyl-5-methyl-1H-pyrazol-4-yl)-9-methyl-6-{[(3S)-1-{[1-(1-methylethyl)-1H-pyrazol-4-yl]carbonyl}pyrrolidin-3-yl]oxy}-9H-purine] | 5 |
| CCn1ncc(-c2nc3c(O[C@H]4CCN(C(=O)c5cnn(C)c5)C4)ncnc3n2C)c1C [Compound 2-80, 8-(1-ethyl-5-methyl-1H-pyrazol-4-yl)-9-methyl-6-({(3S)-1-[(1-methyl-1H-pyrazol-4-yl)carbonyl]pyrrolidin-3-yl}oxy)-9H-purine] | 6 |
| CCn1ncc(-c2nc3c(OC4CCN(C(=O)COC)C4)ncnc3n2C)c1C (stereo not shown) [Compound 2-5, 8-(1-ethyl-5-methyl-1H-pyrazol-4-yl)-6-{[1-(methoxyacetyl)pyrrolidin-3-yl]oxy}-9-methyl-9H-purine] | >10 |
| CCn1c(-c2cnc(C)nc2)nc2c(O[C@H]3CCN(C(=O)C4CCC4C)C3)ncnc21 (single isomer, unassigned) [Compound 2-117, 9-ethyl-6-({(3S)-1-[([(1R,2S) or (1R,2R) or (1S,2R) or (1S,2S)]-methylcyclobutyl)carbonyl]pyrrolidin-3-yl}oxy)-8-(2-methylpyrimidin-5-yl)-9H-purine] | >10 |
| CCn1c(-c2cnc(C)nc2)nc2c(OC3CN(C(=O)C4CC4)CC3C)ncnc21 (single isomer, unassigned) [Compound 3-65, [(3S,4R) or (3R,4S)]6-{[1-(cyclopropylcarbonyl)-4-methylpyrrolidin-3-yl]oxy}-9-ethyl-8-(2-methylpyrimidin-5-yl)-9H-purine] | >10 |
| CCn1c(-c2cnc(C)nc2)nc2c(O[C@H]3CCN(C(=O)N(C)c4ccccc4)C3)ncnc21 [Compound 5-17, (3S)-3-{[9-ethyl-8-(2-methylpyrimidin-5-yl)-9H-purin-6-yl]oxy}-N-methyl-N-phenylpyrrolidine-1-carboxamide] | >10 |
| CCNC(=O)N1CC[C@H](Oc2ncnc3c2nc(-c2cnc(C)nc2)n3CC)C1 [Compound 5-8, (3S)-N-ethyl-3-{[9-ethyl-8-(2-methylpyrimidin-5-yl)-9H-purin-6-yl]oxy}pyrrolidine-1-carboxamide] | >10 |
| CCn1ncc(-c2nc3c(O[C@H]4CCN(C(=O)c5nc6cc(Cl)ccn6n5)C4)ncnc3n2C)c1C [Compound 2-47, 6-({(3S)-1-[(7-chloro[1,2,4]triazolo[1,5-a]pyridin-2-yl)carbonyl]pyrrolidin-3-yl}oxy)-8-(1-ethyl-5-methyl-1H-pyrazol-4-yl)-9-methyl-9H-purine] | 1 |
| CCn1c(-c2cnc(C)nc2)nc2c(O[C@H]3CCN(c4cnccn4)C3)ncnc21 [Compound 7-26, 9-ethyl-8-(2-methylpyrimidin-5-yl)-6-{[(3S)-1-pyrazin-2-ylpyrrolidin-3-yl]oxy}-9H-purine] | >10 |
| Cc1nn(C)cc1-c1nc2c(O[C@H]3CCN(C(=O)OC(C)(C)C)C3)ncnc2n1C [Compound 1-16, tert-butyl (3S)-3-{[8-(1,3-dimethyl-1H-pyrazol-4-yl)-9-methyl-9H-purin-6-yl]oxy}pyrrolidine-1-carboxylate] | >9 |
| CCn1c(-c2cnc(C)nc2)nc2c(O[C@H]3CCN(C(=O)C4CC4CO)C3)ncnc21 (single isomer, unassigned) [Compound 2-131, (1S,2S)- or (1R,2R)-{[(3S)-3-{[9-ethyl-8-(2-methylpyrimidin-5-yl)-9H-purin-6-yl]oxy}pyrrolidin-1-yl]carbonyl}cyclopropyl)methanol] | >10 |
| CCn1c(-c2cnc(C)nc2)nc2c(O[C@H]3CCN(c4cc(C)ccn4)C3)ncnc21 [Compound 7-18, 9-ethyl-6-{[(3S)-1-(4-methylpyridin-2-yl)pyrrolidin-3-yl]oxy}-8-(2-methylpyrimidin-5-yl)-9H-purine] | >10 |
| CCn1ncc(-c2nc3c(S[C@H]4CCN(c5ccncn5)C4)ncnc3n2C)c1C [Compound 10-12, (S)-8-(1-ethyl-5-methyl-1H-pyrazol-4-yl)-9-methyl-6-((1-(pyrimidin-4-yl)pyrrolidin-3-yl)thio)-9H-purine] | >10 |
| CCn1ncc(-c2nc3c(O[C@H]4CCN(C(=O)c5cc(C)n(C)c5C)C4)ncnc3n2C)c1C [Compound 2-79, 8-(1-ethyl-5-methyl-1H-pyrazol-4-yl)-9-methyl-6-({(3S)-1-[(1,2,5-trimethyl-1H-pyrrol-3-yl)carbonyl]pyrrolidin-3-yl}oxy)-9H-purine] | >10 |
| CCn1c(N(C)CCOC)nc2c(O[C@H]3CCN(C(=O)OC(C)(C)C)C3)ncnc21 [Compound 13-6, tert-butyl (3S)-3-({9-ethyl-8-[(2-methoxyethyl)(methyl)amino]-9H-purin-6-yl}oxy)pyrrolidine-1-carboxylate] | >10 |

| Structure (SMILES) | Relative Selectivity versus PI3Kalpha |
| --- | --- |
| CCn1c(-c2cnc(C)nc2)nc2c(OC3CN(C(=O)C4CC4)CC34CC4)ncnc21 (stereo not shown) [Compound 3-63, (R— or S—)-6-{[5-(cyclopropylcarbonyl)-5-azaspiro[2.4]hept-7-yl]oxy}-9-ethyl-8-(2-methylpyrimidin-5-yl)-9H-purine] | >10 |
| CCn1ncc(-c2nc3c(O[C@H]4CCN(C(=O)c5cc(C)nn5C)C4)ncnc3n2C)c1C [Compound 2-38, 6-({(3S)-1-[(1,3-dimethyl-1H-pyrazol-5-yl)carbonyl]pyrrolidin-3-yl}oxy)-8-(1-ethyl-5-methyl-1H-pyrazol-4-yl)-9-methyl-9H-purine] | 7 |
| CCn1ncc(-c2nc3c(O[C@H]4CCN(C(=O)C5CCOC(C)(C)C5)C4)ncnc3n2C)c1C (stereo partly drawn) [Compound 2-24, 6-({(3S)-1-[(2,2-dimethyltetrahydro-2H-pyran-4-yl)carbonyl]pyrrolidin-3-yl}oxy)-8-(1-ethyl-5-methyl-1H-pyrazol-4-yl)-9-methyl-9H-purine] | >10 |
| Cn1c(-c2ccc(N3CCOCC3)nc2)nc2c(O[C@H]3CCN(C(=O)OC(C)(C)C)C3)ncnc21 [Compound 1-24, tert-butyl (3S)-3-{[9-methyl-8-(6-morpholin-4-ylpyridin-3-yl)-9H-purin-6-yl]oxy}pyrrolidine-1-carboxylate] | >2 |
| CCn1c(-c2cnc(C)nc2)nc2c(O[C@H]3C[C@@H](NC(=O)OC(C)(C)C)C3)ncnc21 [Compound 9-5, tert-butyl (cis-3-{[9-ethyl-8-(2-methylpyrimidin-5-yl)-9H-purin-6-yl]oxy}cyclobutyl)carbamate] | >10 |
| CCC1CN(C(=O)OCc2ccccc2)CC1Oc1ncnc2c1nc(-c1cnc(C)nc1)n2CC [Compound 1-45, [(3S,4R) and (3R,4S)]-benzyl 3-ethyl-4-{[9-ethyl-8-(2-methylpyrimidin-5-yl)-9H-purin-6-yl]oxy}pyrrolidine-1-carboxylate] | >10 |
| CCC(=O)N1CC[C@H](Oc2ncnc3c2nc(-c2cnc(C(C)(C)C)s2)n3C)C1 [Compound 2-96, (S)-1-(3-((8-(2-(tert-butyl)thiazol-5-yl)-9-methyl-9H-purin-6-yl)oxy)pyrrolidin-1-yl)propan-1-one] | >10 |
| CCn1c(-c2cnc(C)nc2)nc2c(O[C@H]3CCN(S(=O)(=O)CC)C3)ncnc21 [Compound 4-8, (S)-9-ethyl-6-((1-(ethylsulfonyl)pyrrolidin-3-yl)oxy)-8-(2-methylpyrimidin-5-yl)-9H-purine] | >10 |
| CCn1c(-c2cnc(C)nc2)nc2c(O[C@H]3CCN(C(=O)C4CCOC4)C3)ncnc21 (stereo partly drawn) [Compound 2-113, 9-ethyl-8-(2-methylpyrimidin-5-yl)-6-{[(3S)-1-(tetrahydrofuran-3-ylcarbonyl)pyrrolidin-3-yl]oxy}-9H-purine] | >10 |
| Cn1cnc2c(O[C@H]3CCN(C(=O)OC(C)(C)C)C3)ncnc21 [Compound 1-32, (S)-tert-butyl 3-((9-methyl-9H-purin-6-yl)oxy)pyrrolidine-1-carboxylate] | >7 |
| CCn1c(-c2ccc(C(F)(F)F)cc2)nc2c(O[C@H]3CCN(C(=O)C4CC4)C3)ncnc21 [Compound 2-146, 6-{[(3S)-1-(cyclopropylcarbonyl)pyrrolidin-3-yl]oxy}-9-ethyl-8-[4-(trifluoromethyl)phenyl]-9H-purine] | >10 |
| CCC(=O)N1CC[C@H](S(=O)(=O)c2ncnc3c2nc(-c2cnn(CC)c2C)n3C)C1 [Compound 10-6, (S)-1-(3-((8-(1-ethyl-5-methyl-1H-pyrazol-4-yl)-9-methyl-9H-purin-6-yl)sulfonyl)pyrrolidin-1-yl)propan-1-one] | 5 |
| CCn1ncc(-c2nc3c(O[C@H]4CCN(c5ncnc6sc(C)c(C)c56)C4)ncnc3n2C)c1C [Compound 7-12, 6-{[(3S)-1-(5,6-dimethylthieno[2,3-d]pyrimidin-4-yl)pyrrolidin-3-yl]oxy}-8-(1-ethyl-5-methyl-1H-pyrazol-4-yl)-9-methyl-9H-purine] | >10 |
| CCn1c(-c2cnc(C)nc2)nc2c(O[C@H]3CCN(C(=O)N4CC5CC5C4)C3)ncnc21 (stereo partly drawn) [Compound 5-22, 6-{[(3S)-1-(3-azabicyclo[3.1.0]hex-3-ylcarbonyl)pyrrolidin-3-yl]oxy}-9-ethyl-8-(2-methylpyrimidin-5-yl)-9H-purine] | >10 |
| CCn1c(-c2ccc(OC)cn2)nc2c(O[C@H]3CCN(C(=O)C4CC4)C3)ncnc21 [Compound 3-48, 6-{[(3S)-1-(cyclopropylcarbonyl)pyrrolidin-3-yl]oxy}-9-ethyl-8-(5-methoxypyridin-2-yl)-9H-purine] | >10 |

Source: patent US9730940B2, “Purine inhibitors of human phosphatidylinositol 3-kinase delta” (priority 2012, dated 2017)
